From patent US9206188B2, “Substituted pyrrolo[2,3-b]pyridines as ITK and JAK inhibitors” (Arrien Pharmaceuticals LLC, priority 2013, dated 2015)
Where two headings read alike, the source gives them in different places.

Experiments:
[1] = biological target: ITK (Homo sapiens (Human), UniProt Q08881); assay: ITK kinase assay (radiometric filter binding, 10 μM ATP); assay type: biochemical
Procedure: (§1) All additions were done on ice, followed by the addition of ATP mix. Wells were uniformly mixed using an Eppendorff plate shaker and incubated at 30° C. for 20 min, and stopped by the addition of 5 μL of 3% phosphoric acid. Volume was increased to 100 μL by adding 0.8% phosphoric acid which was then transferred to PC filter mats (Millipore), pre-equilibrated with 70% ethanol and water. Plates were washed thrice with 100 μL 0.8% phosphoric acid and dried for an hour at 60° C. 100 μL scintillation fluid was added into each well and reading taken in Perkin Elmer TOPCOUNT beta counter.
(§2) The reactions were carried out at 10 μM ATP for ITK, JAK3 and other TEC and Janus family of kinase.

[2] = biological target: JAK3 (Homo sapiens (Human), UniProt P52333); assay: JAK3 kinase assay (radiometric filter binding, 10 μM ATP); assay type: biochemical
Procedure: as §1, §2

[3] = 10-dose IC50 mode, 10 μM ATP, read-out: ITK kinase inhibition
[4] = 10-dose IC50 mode, 10 μM ATP, read-out: JAK3 kinase inhibition
[5] = read-out: biochemical IC50 against ITK
[6] = read-out: biochemical IC50 against JAK3

Chain of JAK3 (P52333 whole entry): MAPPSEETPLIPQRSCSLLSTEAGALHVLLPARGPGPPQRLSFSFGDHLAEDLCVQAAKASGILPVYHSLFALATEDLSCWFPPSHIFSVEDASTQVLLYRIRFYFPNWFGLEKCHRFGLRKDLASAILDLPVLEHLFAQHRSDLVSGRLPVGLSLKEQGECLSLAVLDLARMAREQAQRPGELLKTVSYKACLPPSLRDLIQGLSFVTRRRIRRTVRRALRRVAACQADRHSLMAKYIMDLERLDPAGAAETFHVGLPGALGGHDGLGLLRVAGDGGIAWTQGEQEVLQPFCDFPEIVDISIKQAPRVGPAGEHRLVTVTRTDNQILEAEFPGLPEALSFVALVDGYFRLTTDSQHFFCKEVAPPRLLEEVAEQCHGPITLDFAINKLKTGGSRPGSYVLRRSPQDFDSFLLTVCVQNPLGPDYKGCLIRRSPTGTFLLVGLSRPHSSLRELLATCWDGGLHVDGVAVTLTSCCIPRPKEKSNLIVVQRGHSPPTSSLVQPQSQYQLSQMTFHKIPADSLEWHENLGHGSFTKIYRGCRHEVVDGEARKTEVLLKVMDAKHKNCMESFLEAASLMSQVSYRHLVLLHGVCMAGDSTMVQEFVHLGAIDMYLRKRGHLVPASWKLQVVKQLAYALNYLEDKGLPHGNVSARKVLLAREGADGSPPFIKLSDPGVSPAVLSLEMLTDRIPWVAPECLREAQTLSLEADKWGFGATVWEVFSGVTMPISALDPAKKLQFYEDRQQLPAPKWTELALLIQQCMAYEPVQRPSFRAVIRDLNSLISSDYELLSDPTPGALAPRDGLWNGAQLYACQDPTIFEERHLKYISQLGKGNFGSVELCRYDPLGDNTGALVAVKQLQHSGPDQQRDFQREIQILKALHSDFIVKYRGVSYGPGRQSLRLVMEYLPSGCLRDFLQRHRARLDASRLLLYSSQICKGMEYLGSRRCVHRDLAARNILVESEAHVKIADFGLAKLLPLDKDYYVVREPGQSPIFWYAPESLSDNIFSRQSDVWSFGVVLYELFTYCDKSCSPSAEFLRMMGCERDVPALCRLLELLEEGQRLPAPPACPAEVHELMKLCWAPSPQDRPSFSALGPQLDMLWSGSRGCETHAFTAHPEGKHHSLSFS
Chain of ITK (Q08881 whole entry): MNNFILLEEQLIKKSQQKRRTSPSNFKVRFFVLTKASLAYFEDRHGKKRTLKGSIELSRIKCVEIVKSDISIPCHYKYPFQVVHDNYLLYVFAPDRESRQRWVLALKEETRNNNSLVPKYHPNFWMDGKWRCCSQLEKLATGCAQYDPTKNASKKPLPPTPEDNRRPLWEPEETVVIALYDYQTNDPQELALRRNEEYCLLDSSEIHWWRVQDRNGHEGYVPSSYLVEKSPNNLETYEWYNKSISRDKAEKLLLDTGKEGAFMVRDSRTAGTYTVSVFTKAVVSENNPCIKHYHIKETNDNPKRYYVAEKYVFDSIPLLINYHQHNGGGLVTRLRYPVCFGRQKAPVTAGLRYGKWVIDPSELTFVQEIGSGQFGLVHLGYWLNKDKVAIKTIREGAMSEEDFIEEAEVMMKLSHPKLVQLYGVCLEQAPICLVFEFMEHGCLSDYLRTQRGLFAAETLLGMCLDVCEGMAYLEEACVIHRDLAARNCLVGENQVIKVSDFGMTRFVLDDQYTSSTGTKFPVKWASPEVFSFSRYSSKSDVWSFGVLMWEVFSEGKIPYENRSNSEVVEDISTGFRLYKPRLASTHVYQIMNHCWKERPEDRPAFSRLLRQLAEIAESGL

SMILES | IC50 [1, 3] | IC50 [2, 4] | IC50 [1, 5] | IC50 [2, 6] | IC50 ([1]; read-out: ITK kinase inhibition)
Cc1n[nH]c2ncc(-c3cccc(NC(=O)/C=C/N(C)C)c3)cc12 [Example 48, (E)-3-(dimethylamino)-N-(3-(3-methyl-1H-pyrazolo[3,4-b]pyridin-5-yl)phenyl)acrylamide] | > 0.1 µM | > 0.1 µM | – | – | –
Cc1n[nH]c2ncc(-c3ccc(Cl)c(NC(=O)/C=C/N(C)C)c3)cc12 [Example 49, (E)-N-(2-chloro-5-(3-methyl-1H-pyrazolo[3,4-b]pyridin-5-yl)phenyl)-3-(dimethylamino)acrylamide] | > 0.1 µM | > 0.1 µM | – | – | –
C=CC(=O)Nc1cc(-c2cnc3[nH]nc(C)c3c2)ccc1Cl [Example 50, N-(2-chloro-5-(3-methyl-1H-pyrazolo[3,4-b]pyridin-5-yl)phenyl)acrylamide] | > 0.1 µM | > 0.1 µM | – | – | –
CC/C=C/C(=O)Nc1cc(-c2cnc3[nH]nc(C)c3c2)ccc1Cl [Example 52, (E)-N-(2-chloro-5-(3-methyl-1H-pyrazolo[3,4-b]pyridin-5-yl)phenyl)pent-2-enamide] | > 1 µM | > 1 µM | – | – | –
N#CCc1cccc(Nc2cnc3[nH]cc(Cl)c3c2)c1 [Example 53, 2-(3-((3-chloro-1H-pyrrolo[2,3-b]pyridin-5-yl)amino)phenyl)acetonitrile] | > 1 µM | > 1 µM | – | – | –
C=CC(=O)Nc1cccc(-c2cnc3[nH]ccc3c2)n1 [Example 57, N-(6-(1H-pyrrolo[2,3-b]pyridin-5-yl)pyridin-2-yl)acrylamide] | > 0.1 µM | < 0.1 µM | – | – | –
C=CC(=O)Nc1cccc(-c2cnc3[nH]cc(Cl)c3c2)n1 [Example 58, N-(6-(3-chloro-1H-pyrrolo[2,3-b]pyridin-5-yl)pyridin-2-yl)acrylamide] | > 0.1 µM | < 0.1 µM | – | – | –
C=CC(=O)Nc1cc(-c2cnc3[nH]ccc3c2)ccc1F [Example 59, N-(2-fluoro-5-(1H-pyrrolo[2,3-b]pyridin-5-yl)phenyl)acrylamide] | < 0.1 µM | < 0.1 µM | – | – | –
C=CC(=O)Nc1ccc(-c2cnc3[nH]ccc3c2)cc1F [Example 61, N-(2-fluoro-4-(1H-pyrrolo[2,3-b]pyridin-5-yl)phenyl)acrylamide] | > 1 µM | > 0.1 µM | – | – | –
C=CC(=O)Nc1ccc(-c2cnc3[nH]cc(Cl)c3c2)cc1F [Example 62, -(4-(3-chloro-1H-pyrrolo[2,3-b]pyridin-5-yl)-2-fluorophenyl)acrylamide] | > 1 µM | > 0.1 µM | – | – | –
C=CC(=O)Nc1cc(-c2cnc3[nH]ccc3c2)cc(F)c1F [Example 63, N-(2,3-difluoro-5-(1H-pyrrolo[2,3-b]pyridin-5-yl)phenyl)acrylamide] | > 1 µM | > 0.1 µM | – | – | –
C=CC(=O)Nc1cccc(-c2cnc3[nH]cc(-c4cc5ccccc5[nH]4)c3c2)c1 [Example 66, N-(3-(3-(1H-indol-2-yl)-1H-pyrrolo[2,3-b]pyridin-5-yl)phenyl)acrylamide] | < 0.1 µM | < 0.1 µM | 0.1 to 1 µM | 0.1 to 1 µM | –
O=C(Nc1cccc(-c2cnc3[nH]cc(Cl)c3c2)c1)C1CCCN1 (centres unmarked) [Example 67, N-(3-(3-chloro-1H-pyrrolo[2,3-b]pyridin-5-yl)phenyl)pyrrolidine-2-carboxamide] | > 0.1 µM | > 0.1 µM | – | – | –
C=CC(=O)N1CCCC1C(=O)Nc1cccc(-c2cnc3[nH]cc(Cl)c3c2)c1 (centres unmarked) [Example 68, 1-acryloyl-N-(3-(3-chloro-1H-pyrrolo[2,3-b]pyridin-5-yl)phenyl)pyrrolidine-2-carboxamide] | > 0.1 µM | > 0.1 µM | – | – | –
C=CC(=O)N1CCCC1C(=O)Nc1cnc2[nH]ccc2c1 (centres unmarked) [Example 69, 1-acryloyl-N-(1H-pyrrolo[2,3-b]pyridin-5-yl)pyrrolidine-2-carboxamide] | > 0.1 µM | > 0.1 µM | – | – | –
C#CC(=O)Nc1cccc(-c2cnc3[nH]cc(C)c3c2)c1 [Example 70, N-(3-(3-methyl-1H-pyrrolo[2,3-b]pyridin-5-yl)phenyl)propiolamide] | > 0.1 µM | < 0.1 µM | – | – | –
Cc1c[nH]c2ncc(-c3cccc(NC(=O)C4CCCN4)c3)cc12 (centres unmarked) [Example 71, N-(3-(3-methyl-1H-pyrrolo[2,3-b]pyridin-5-yl)phenyl)pyrrolidine-2-carboxamide] | > 0.1 µM | > 0.1 µM | – | – | –
C=CC(=O)N1CCCC1C(=O)Nc1cccc(-c2cnc3[nH]cc(C)c3c2)c1 (centres unmarked) [Example 72, 1-acryloyl-N-(3-(3-methyl-1H-pyrrolo[2,3-b]pyridin-5-yl)phenyl)pyrrolidine-2-carboxamide] | > 0.1 µM | > 0.1 µM | – | – | –
C=CC(=O)Nc1cccc(-c2cnc3[nH]cc(-c4cc5ccccc5[nH]4)c3c2)c1 [Example 74, N-(3-(3-(1H-indol-2-yl)-1H-pyrrolo[2,3-b]pyridin-5-yl)phenyl)acrylamide] | > 1 µM | > 0.1 µM | – | – | –

SMILES | IC50 [1, 3] | IC50 [2, 4] | IC50 [1, 5] | IC50 [2, 6] | IC50 ([1]; read-out: ITK kinase inhibition)
C=CC(=O)Nc1cccc(-c2cnc3[nH]cc(-c4cc5ccc(C)cc5[nH]4)c3c2)c1 [Example 75, N-(3-(3-(6-methyl-1H-indol-2-yl)-1H-pyrrolo[2,3-b]pyridin-5-yl)phenyl)acrylamide] | > 1 µM | < 0.1 µM | 0.1 to 1 µM | 0.1 to 1 µM | –
C=CC(=O)Nc1cccc(-c2cnc3[nH]cc(-c4cccc(C(N)=O)c4)c3c2)c1 [Example 76, 3-(5-(3-acrylamidophenyl)-1H-pyrrolo[2,3-b]pyridin-3-yl)benzamide] | > 0.1 µM | > 0.1 µM | – | – | –
C#CC(=O)Nc1cccc(-c2cnc3[nH]ccc3c2)n1 [Example 77, N-(6-(1H-pyrrolo[2,3-b]pyridin-5-yl)pyridin-2-yl)propiolamide] | < 0.1 µM | < 0.1 µM | – | – | –
CCC#CC(=O)Nc1cccc(-c2cnc3[nH]ccc3c2)n1 [Example 78, N-(6-(1H-pyrrolo[2,3-b]pyridin-5-yl)pyridin-2-yl)pent-2-ynamide] | < 0.1 µM | < 0.1 µM | – | – | –
C#CC(=O)Nc1cccc(-c2cnc3[nH]cc(Cl)c3c2)n1 [Example 79, N-(6-(3-chloro-1H-pyrrolo[2,3-b]pyridin-5-yl)pyridin-2-yl)propiolamide] | < 0.1 µM | < 0.1 µM | – | – | –
CCC#CC(=O)Nc1cccc(-c2cnc3[nH]cc(Cl)c3c2)n1 [Example 80, N-(6-(3-chloro-1H-pyrrolo[2,3-b]pyridin-5-yl)pyridin-2-yl)pent-2-ynamide] | < 0.1 µM | < 0.1 µM | – | – | –
CC#CC(=O)Nc1cccc(-c2cnc3[nH]ccc3c2)n1 [Example 81, N-(6-(1H-pyrrolo[2,3-b]pyridin-5-yl)pyridin-2-yl)but-2-ynamide] | < 0.1 µM | < 0.1 µM | – | – | –
CC#CC(=O)Nc1cccc(-c2cnc3[nH]cc(Cl)c3c2)n1 [Example 82, N-(6-(3-chloro-1H-pyrrolo[2,3-b]pyridin-5-yl)pyridin-2-yl)but-2-ynamide] | < 0.1 µM | < 0.1 µM | – | – | –
C#CC(=O)Nc1cc(-c2cnc3[nH]ccc3c2)ccc1F [Example 83, N-(2-fluoro-5-(1H-pyrrolo[2,3-b]pyridin-5-yl)phenyl)propiolamide] | > 1 µM | < 0.1 µM | – | – | –
C#CC(=O)Nc1cc(-c2cnc3[nH]cc(Cl)c3c2)ccc1F [Example 84, N-(5-(3-chloro-1H-pyrrolo[2,3-b]pyridin-5-yl)-2-fluorophenyl)propiolamide] | > 1 µM | < 0.1 µM | – | – | –
CCC#CC(=O)Nc1cc(-c2cnc3[nH]ccc3c2)ccc1F [Example 85, N-(2-fluoro-5-(1H-pyrrolo[2,3-b]pyridin-5-yl)phenyl)pent-2-ynamide] | > 1 µM | < 0.1 µM | – | – | –
CCC#CC(=O)Nc1cc(-c2cnc3[nH]cc(Cl)c3c2)ccc1F [Example 86, N-(5-(3-chloro-1H-pyrrolo[2,3-b]pyridin-5-yl)-2-fluorophenyl)pent-2-ynamide] | > 0.1 µM | < 0.1 µM | – | – | –
CC#CC(=O)Nc1cc(-c2cnc3[nH]ccc3c2)ccc1F [Example 87, N-(2-fluoro-5-(1H-pyrrolo[2,3-b]pyridin-5-yl)phenyl)but-2-ynamide] | > 0.1 µM | < 0.1 µM | – | – | –
CCC#CC(=O)Nc1cccc(-c2cnc3[nH]cc(C)c3c2)n1 [Example 90, N-(6-(3-methyl-1H-pyrrolo[2,3-b]pyridin-5-yl)pyridin-2-yl)pent-2-ynamide] | < 0.1 µM | < 0.1 µM | – | – | –
CC#CC(=O)Nc1cccc(-c2cnc3[nH]cc(C)c3c2)n1 [Example 91, N-(6-(3-methyl-1H-pyrrolo[1,3-b]pyridin-5-yl)pyridin-2-yl)but-2-ynamide] | < 0.1 µM | < 0.1 µM | – | – | –
C#CC(=O)Nc1cc(-c2cnc3[nH]cc(C)c3c2)ccc1F [Example 92, N-(2-fluoro-5-(3-methyl-1H-pyrrolo[2,3-b]pyridin-5-yl)phenyl)propiolamide] | < 0.1 µM | < 0.1 µM | – | – | –
CC#CC(=O)Nc1cc(-c2cnc3[nH]cc(C)c3c2)ccc1F [Example 93, N-(2-fluoro-5-(3-methyl-1H-pyrrolo[2,3-b]pyridin-5-yl)phenyl)but-2-ynamide] | > 0.1 µM | > 0.1 µM | – | – | –
CC#CC(=O)Nc1cccc(-c2cnc3[nH]cc(-c4cccc(S(=O)(=O)N(C)C(C)(C)C)c4)c3c2)c1 [Example 94, N-(3-(3-(3-(N-(tert-butyl)-N-methylsulfamoyl)phenyl)-1H-pyrrolo[2,3-b]pyridin-5-yl)phenyl)but-2-ynamide] | – | > 0.1 µM | – | – | > 0.1 µM
C#CC(=O)Nc1cccc(-c2cnc3[nH]cc(-c4cccc(S(=O)(=O)N(C)C(C)(C)C)c4)c3n2)c1 [Example 95, N-(3-(7-(3-(N-(tert-butyl)-N-methylsulfamoyl)phenyl)-5H-pyrrolo[2,3-b]pyrazin-2-yl)phenyl)propiolamide] | > 0.1 µM | > 0.1 µM | – | – | –
